Each structure is given as a SMILES string.

Three compounds from patent publication US6586369B1, “Fungicidal agents containing pyrrolidones as their active agents and use thereof for treating plants” (BASF Aktiengesellschaft, priority 2000, dated 2003) can be followed below.

The subject of series [1] is harmful fungi. The experiment in a line: Fungicidal activity, general statement, no test named. To be noted: no test conditions given.

Usually melting point stands for the temperature of the solid-liquid transition. Turning to `C[S+]([O-])C1=C(c2ccccc2)C(=O)N(Nc2ccccc2)C1=O` (stereo not shown) [No. 1042, 1-Anilino-3-methylsulfinyl-4-phenylpyrrol-2,5-dione], the melting point fell in the range of 178 to 180 °C.
`O=C1C(Cl)=C(c2ccccc2)C(=O)N1Nc1ccccc1` [No. 1, 1-Anilino-3-chloro-4-phenylpyrrol-2,5-dione]: the melting point is 143 to 145 °C. Further, the “fungicidal activity (in words)” value in series [1] is “excellent fungicidal activity”.
On to `O=C1C(Br)=C(c2ccccc2)C(=O)N1Nc1ccccc1` [No. 486, 1-Anilino-3-bromo-4-phenylpyrrol-2,5-dione], for which the melting point was in the range of 148 to 149 °C.
